Patent US9765074B2, “Inhibitors of the renal outer medullary potassium channel” (Merck Sharp & Dohme Corp., priority 2013, dated 2017)

Each compound was assayed against T1, hROMK (hKir1.1) (Homo sapiens, UniProt P48048) (assay: Thallium Flux Assay (ROMK channel functional thallium flux, FLIPR-Tetra)). Conditions: HEK293 cells stably expressing hROMK (hKir1.1); 30 min compound incubation.
T1 construct: expressed in transfected cells
T1 sequence (P48048 1-391): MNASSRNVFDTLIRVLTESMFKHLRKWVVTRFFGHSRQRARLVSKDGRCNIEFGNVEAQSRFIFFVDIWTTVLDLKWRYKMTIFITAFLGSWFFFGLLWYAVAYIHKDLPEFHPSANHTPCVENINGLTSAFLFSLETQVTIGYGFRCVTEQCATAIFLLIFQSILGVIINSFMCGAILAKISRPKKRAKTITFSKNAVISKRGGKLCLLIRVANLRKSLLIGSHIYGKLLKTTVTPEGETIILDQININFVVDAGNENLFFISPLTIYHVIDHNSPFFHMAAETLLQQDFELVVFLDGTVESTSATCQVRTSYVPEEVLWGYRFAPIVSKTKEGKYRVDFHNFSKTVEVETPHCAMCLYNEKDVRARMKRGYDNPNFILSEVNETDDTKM
Assay type: cell-based
How it was run: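 HEK293 cells stably expressing hKir1.1, loaded with FluxOR dye for 90 min, then preincubated with compound for 30 min at ambient temperature with 0.3 mM ouabain and probenecid. Stimulated with 3 mM thallium/0.3 mM potassium (final); fluorescence read ~10 min. Normalized to 3 μM reference ROMK inhibitor; IC50 from inhibition of flux.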

Row | Compound | IC50 [nM]
1 | CC1=C(N2C=CC3(CCN(CCc4ncc(-n5cnnn5)nc4C)CC3)C2=O)COC1=O [Example 263, 2-(4-methyl-5-oxo-2,5-dihydrofuran-3-yl)-8-{2-[3-methyl-5-(1H-tetrazol-1-yl)pyrazin-2-yl]ethyl}-1-oxo-2-aza-8-azoniaspiro[4.5]dec-3-ene] | 10
2 | CC1=C(N2CCC3(CCN(C[C@@H](O)c4ncc(-n5cnnn5)cn4)CC3)C2=O)COC1=O [Example 41, 8-{(2R)-2-hydroxy-2-[5-(1H-tetrazol-1-yl)pyrimidin-2-yl]ethyl}-2-(4-methyl-5-oxo-2,5-dihydrofuran-3-yl)-1-oxo-2-aza-8-azoniaspiro[4.5]decane] | 160
3 | Cc1nc(-n2cnnn2)ccc1[C@@H](O)CN1CCC2(CC1)CCN(C1=C(C3CC3)C(=O)OC1)C2=O [Example 60, 2-(4-cyclopropyl-5-oxo-2,5-dihydrofuran-3-yl)-8-{(2R)-2-hydroxy-2-[2-methyl-6-(1H-tetrazol-1-yl)pyridin-3-yl]ethyl}-1-oxo-2-aza-8-azoniaspiro[4.5]decane] | 40
4 | CO[C@@H](CN1CCC2(CC1)CCN(C1=C(C)C(=O)OC1)C2=O)c1ccc(-n2cnnn2)nc1 [Example 289, (R)-8-(2-(6-(1H-tetrazol-1-yl)pyridin-3-yl)-2-methoxyethyl)-2-(4-methyl-5-oxo-2,5-dihydrofuran-3-yl)-2,8-diazaspiro[4.5]decan-1-one] | 20
5 | CC1=C(N2C(=O)C3(CCN(C[C@@H](O)c4ccc(-n5cnnn5)cc4C)CC3)CC2C)COC1=O (single isomer, unassigned) [Example 140] | 10
6 | CC1=C(N2CCC3(CCN(C[C@H](O)c4cncc(-n5cnnn5)c4)CC3)C2=O)COC1=O [Example 131, 8-{(2R)-2-hydroxy-2-[5-(1H-tetrazol-1-yl)pyridin-3-yl]ethyl}-2-(4-methyl-5-oxo-2,5-dihydrofuran-3-yl)-1-oxo-2-aza-8-azoniaspiro[4.5]decane] | 680
7 | Cc1nc(-n2cnnn2)ccc1[C@H](O)CN1C2CCC1CC1(CCN(C3=CC(=O)OC3)C1=O)C2 (stereo partly drawn) [Example 42, (1R,5R)-8-{(2S)-2-hydroxy-2-[2-methyl-6-(1H-tetrazol-1-yl)pyridin-3-yl]ethyl}-2′-oxo-1′-(5-oxo-2,5-dihydrofuran-3-yl)spiro[8-azoniabicyclo[3.2.1]octane-3,3′-pyrrolidine]] | 20
8 | CC1=C(N2CCC3(CCN(C(C)(C)C(O)c4ccc(-n5cnnn5)cn4)CC3)C2=O)COC1=O (single isomer, unassigned) [Example 300] | 20
9 | CC1=C(N2CCC3(CCN(C[C@@H](O)c4ccc(-n5cnnn5)c(C)n4)CC3)C2=O)COC1=O [Example 31, 8-{(2R)-2-hydroxy-2-[6-methyl-5-(1H-tetrazol-1-yl)pyridin-2-yl]ethyl}-2-(4-methyl-5-oxo-2,5-dihydrofuran-3-yl)-1-oxo-2-aza-8-azoniaspiro[4.5]decane] | 30
10 | CC1=C(N2CCC3(CC4CCC(C3)N4C[C@H](O)c3ccc(-n4cnnn4)cn3)C2=O)COC1=O (stereo partly drawn) [Example 47, (1R,5R)-8-{(2S)-2-hydroxy-2-[5-(1H-tetrazol-1-yl)pyridin-2-yl]ethyl}-1′-(4-methyl-5-oxo-2,5-dihydrofuran-3-yl)-2′-oxospiro[8-azoniabicyclo[3.2.1]octane-3,3′-pyrrolidine]] | 20
11 | CC1=C(N2CCC3(CCN(C[C@@H](O)c4ccc(-n5cnnn5)cn4)CC3)C2=O)COC1=O [Example 23, 8-{(2R)-2-hydroxy-2-[5-(1H-tetrazol-1-yl)pyridin-2-yl]ethyl}-2-(4-methyl-5-oxo-2,5-dihydrofuran-3-yl)-1-oxo-2-aza-8-azoniaspiro[4.5]decane] | 20
12 | CC1=C(N2C=CC3(CCN(C[C@H](O)c4ccc(-n5cnnn5)nc4)CC3)C2=O)COC1=O [Example 116, 8-{(2R)-2-hydroxy-2-[6-(1H-tetrazol-1-yl)pyridin-3-yl]ethyl}-2-(4-methyl-5-oxo-2,5-dihydrofuran-3-yl)-1-oxo-2-aza-8-azoniaspiro[4.5]dec-3-ene] | 30
13 | COC1CN(C2=C(C)C(=O)OC2)C(=O)C12CCN(C[C@H](O)c1ccc(-n3cnnn3)nc1)CC2 (single isomer, unassigned) [Example 114] | 60
14 | CC1=C(N2C(=O)C3(CCN(C[C@H](O)c4ccc(-n5cnnn5)cc4F)CC3)CC2C)COC1=O (single isomer, unassigned) [Example 141] | 30
15 | CC1CC2(CC3CCC(C2)N3C[C@@H](O)c2cnc(-n3cnnn3)cn2)C(=O)N1C1=CC(=O)OC1 (single isomer, unassigned) [Example 90] | 40
16 | CC1=C(N2C(=O)C3(CCN(C[C@@H](O)c4ccc(-n5cnnn5)cc4F)CC3)CC2C)COC1=O (single isomer, unassigned) [Example 142] | 30

Other lines, results leading:

Row | IC50 [nM] | Compound
17 | 100 | CC1=CC2(CCN(C[C@H](O)c3cnc(-n4cnnn4)cn3)CC2)C(=O)N1C1=CC(=O)OC1 [Example 187, 8-{(2S)-2-hydroxy-2-[5-(1H-tetrazol-1-yl)pyrazin-2-yl]ethyl}-3-methyl-2-(5-oxo-2,5-dihydrofuran-3-yl)-2,8-diazaspiro[4.5]dec-3-en-1-one]
18 | 30 | O=C1C=C(N2C(=O)C3(CCN(C[C@H](O)c4cnc(-n5cnnn5)cn4)CC3)CC2CF)CO1 (single isomer, unassigned) [Example 205]
19 | 40 | Cc1nc([C@@H](O)CN2CCC3(CC2)CCN(C2=CC(=O)OC2)C3=O)ccc1-n1cnnn1 [Example 5, 8-{(2S)-2-hydroxy-2-[6-methyl-5-(1H-tetrazol-1-yl)pyridin-2-yl]ethyl}-1-oxo-2-(5-oxo-2,5-dihydrofuran-3-yl)-2-aza-8-azoniaspiro[4.5]decane]
20 | 60 | Cc1nc([C@H](O)CN2CCC3(CC2)CCN(C2=CC(=O)OC2)C3=O)ccc1-n1cnnn1 [Example 8, 8-{(2R)-2-hydroxy-2-[6-methyl-5-(1H-tetrazol-1-yl)pyridin-2-yl]ethyl}-1-oxo-2-(5-oxo-2,5-dihydrofuran-3-yl)-2-aza-8-azoniaspiro[4.5]decane]
21 | 330 | COC1CN(C[C@@H](O)c2cnc(-n3cnnn3)cn2)CCC12CCN(C1=C(C)C(=O)OC1)C2=O (single isomer, unassigned) [Example 179]
22 | 10 | CC1CC2(CCN(C(C)(C)C(O)c3cnc(-n4cnnn4)cn3)CC2)C(=O)N1C1=CC(=O)OC1 (single isomer, unassigned) [Example 301, 8-(1-(5-(1H-tetrazol-1-yl)pyrazin-2-yl)-1-hydroxy-2-methylpropan-2-yl)-3-methyl-2-(5-oxo-2,5-dihydrofuran-3-yl)-2,8-diazaspiro[4.5]decan-1-one]
23 | 90 | CC1=C(N2C(=O)C3(CCN(C[C@@H](O)c4ccc(-n5cnnn5)nn4)CC3)CC2C)COC1=O (single isomer, unassigned) [Example 126]
24 | 10 | Cc1nc(-n2cnnn2)cnc1C(O)CN1CCC2(CC1)C[C@H](C)N(C1=CC(=O)OC1)C2=O (mixture of isomers) [Example 169, (3S)-8-{2-hydroxy-2-[3-methyl-5-(1H-tetrazol-1-yl)pyrazin-2-yl]ethyl}-3-methyl-2-(5-oxo-2,5-dihydrofuran-3-yl)-2,8-diazaspiro[4.5]decan-1-one]
